Measured values reported in patent publication US9567322B2, “Substituted tetrahydropyrans and method of use” (AbbVie S.á.r.l., priority 2014, dated 2017).

Biological target: T1, F508delCFTR (Homo sapiens, UniProt P13569, DEL508-508)
T1 construct: expressed in transfected cells; host or cells: CFBE41o- (CFBE41o-F508delCFTR-HRP), doxycycline-inducible
Assay: Cell Surface Expression-Horse Radish Peroxidase (CSE-HRP) assay
Type: cell-based
Details: CFBE41o-F508delCFTR-HRP cells; for EC50: cell surface expression, luminescence readout, 18-24 hours at 33° C., highest concentration tested 20 μM, 8-point curve; for Maximum % activity: maximum at any tested concentration, normalized to on-plate positive control (3 μM) and DMSO
From the text: Cell Surface Expression-Horse Radish Peroxidase (CSE-HRP) Assay:
A cellular assay for measuring the F508delCFTR cell surface expression after correction with test compounds was developed in human lung derived epithelial cell line (CFBE41o-) (Veit G et al, (2012) Mol Biol Cell. 23(21): 4188-4202). This was achieved by expressing the F508delCFTR mutation along with a horseradish peroxidase (HRP) in the fourth exofacial loop and then measuring the HRP activity using luminescence readout from these cells, CFBE41o-F508delCFTR-HRP, that were incubated overnight with the test corrector compounds. Briefly, for this primary assay, the CFBE41o-F508delCFTR-HRP cells were plated in 384-well plates (Greiner Bio-one; Cat 781080) at 4,000 cells/well along with 0.5 μg/mL doxycycline to induce the F508delCFTR-HRP expression and further incubated at 37° C., 5% CO2 for 72 hours. The test compounds were then added at the required concentrations and further incubated for 18-24 hours at 33° C. The highest concentration tested was 20 μM with an 8-point concentration response curve using a 3-fold dilution. Three replicate plates were run to determine one EC50. All plates contained negative controls (dimethyl sulfoxide, DMSO) and positive controls (3 μM of 3-[(2R,4R)-4-({[1-(2,2-difluoro-1,3-benzodioxol-5-yl)cyclopropyl]carbonyl}amino)-7-methoxy-3,4-dihydro-2H-chromen-2-yl]benzoic acid) as well as on-plate concentration response of the positive control. Post incubation, the plates were washed 5× times with Dulbecco's phosphate buffered saline (DPBS), followed by the addition of the HRP substrate, luminol (50 μL), and measuring the HRP activity using luminescence readout on EnVision® Multilabel Plate Reader (Perkin Elmer; product number 2104-0010). The raw counts from the experiment are analyzed using Accelrys® Assay Explorer v3.3.
Z′ greater than 0.5 was used as passing quality control criteria for the plates.
The Z′ is defined as: 1−[3*SDPositive Control+3*SDNegative Control/Absolute(MeanPositive Control−MeanNegative Control)],
wherein “SD” is standard deviation.
The % activity measured at each of the 8 test concentrations of the test compound was normalized to the on-plate positive control using the following formula: % activity=[(test compound response−DMSO response)/(positive control response−DMSO response)]*100
The maximum % activity achieved for the test compound at any tested concentration is presented in Table 1 along with the EC50 calculated using the following general sigmoidal curve with variable Hill slope equation (described as Model 42 in the Accelrys® Assay Explorer v3.3 software): y=(a−d)/(1+(x/c)^b)+d General sigmoidal curve with concentration, response, top, bottom, EC50 and Hill slope.
This model describes a sigmoidal curve with an adjustable baseline, a. The equation can be used to fit curves where response is either increasing or decreasing with respect to the independent variable, “x”.
“x” is a concentration of drug under test.
“a” is the maximum response, and “d” is the minimum response
“c” is the inflection point (EC50) for the curve. That is, “y” is halfway between the lower and upper asymptotes when x=c.
“b” is the slope-factor or Hill coefficient. The sign of b is positive when the response increases with increasing dose and is negative when the response decreases with increasing dose (inhibition).

T1 sequence (P13569 with tags, fused parts or gaps DEL508-508): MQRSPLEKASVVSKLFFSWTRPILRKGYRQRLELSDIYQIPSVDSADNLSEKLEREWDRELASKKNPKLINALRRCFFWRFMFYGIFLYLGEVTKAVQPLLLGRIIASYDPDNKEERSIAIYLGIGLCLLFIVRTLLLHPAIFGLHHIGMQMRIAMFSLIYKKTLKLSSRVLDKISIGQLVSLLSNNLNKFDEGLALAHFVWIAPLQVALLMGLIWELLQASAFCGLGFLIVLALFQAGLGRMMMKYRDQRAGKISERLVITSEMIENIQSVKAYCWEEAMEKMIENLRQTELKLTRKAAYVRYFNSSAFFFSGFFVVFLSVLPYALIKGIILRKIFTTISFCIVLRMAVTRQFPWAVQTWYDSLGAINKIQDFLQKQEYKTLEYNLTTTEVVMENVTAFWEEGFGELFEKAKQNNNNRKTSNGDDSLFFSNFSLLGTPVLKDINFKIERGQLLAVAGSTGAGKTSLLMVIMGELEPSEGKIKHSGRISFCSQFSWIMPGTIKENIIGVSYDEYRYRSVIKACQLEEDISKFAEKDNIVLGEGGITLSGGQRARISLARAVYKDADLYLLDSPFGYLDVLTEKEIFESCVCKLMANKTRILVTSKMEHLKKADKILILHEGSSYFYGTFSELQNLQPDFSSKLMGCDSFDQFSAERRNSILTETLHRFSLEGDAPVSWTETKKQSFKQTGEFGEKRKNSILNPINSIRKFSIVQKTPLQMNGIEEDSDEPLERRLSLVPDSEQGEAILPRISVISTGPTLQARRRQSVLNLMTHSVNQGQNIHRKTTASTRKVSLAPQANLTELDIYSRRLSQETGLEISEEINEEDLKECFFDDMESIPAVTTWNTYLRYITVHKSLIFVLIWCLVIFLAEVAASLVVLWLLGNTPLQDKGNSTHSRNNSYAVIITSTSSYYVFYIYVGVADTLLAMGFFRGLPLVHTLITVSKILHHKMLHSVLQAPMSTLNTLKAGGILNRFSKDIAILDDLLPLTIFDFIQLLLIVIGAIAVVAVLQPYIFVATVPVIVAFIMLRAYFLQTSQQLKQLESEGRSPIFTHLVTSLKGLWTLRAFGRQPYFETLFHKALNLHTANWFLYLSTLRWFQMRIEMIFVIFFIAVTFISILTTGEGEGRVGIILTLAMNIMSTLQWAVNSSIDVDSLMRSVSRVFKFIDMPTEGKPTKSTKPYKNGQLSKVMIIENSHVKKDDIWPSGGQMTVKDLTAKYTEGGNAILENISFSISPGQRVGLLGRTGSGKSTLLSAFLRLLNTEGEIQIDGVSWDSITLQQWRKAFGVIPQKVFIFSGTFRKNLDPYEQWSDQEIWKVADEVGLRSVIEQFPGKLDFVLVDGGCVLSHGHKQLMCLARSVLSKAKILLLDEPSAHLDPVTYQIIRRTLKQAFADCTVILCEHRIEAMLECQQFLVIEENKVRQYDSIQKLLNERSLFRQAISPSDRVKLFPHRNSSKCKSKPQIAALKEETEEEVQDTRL

Row | Compound | EC50 | Maximum % activity | Maximum % activity (3 µM)
1 | COC(=O)c1ccc([C@H]2C[C@@H](NC(=O)C3(c4ccc5c(c4)OC(F)(F)O5)CC3)C[C@@H](c3ccccc3)O2)c(F)c1 (racemic) [Example 63, methyl rac-4-[(2R,4S,6S)-4-({[1-(2,2-difluoro-1,3-benzodioxol-5-yl)cyclopropyl]carbonyl}amino)-6-phenyltetrahydro-2H-pyran-2-yl]-3-fluorobenzoate] | 0.86 µM | 105% | –
2 | O=C(N[C@H]1CCO[C@H](c2ccc(Br)cc2)C1)C1(c2ccc3c(c2)OC(F)(F)O3)CC1 [Example 21, N-[(2S,4S)-2-(4-bromophenyl)tetrahydro-2H-pyran-4-yl]-1-(2,2-difluoro-1,3-benzodioxol-5-yl)cyclopropanecarboxamide] | 7.72 µM | 59% | –
3 | O=C(N[C@@H]1CCO[C@@H](c2cccc(CO)c2)C1)C1(c2ccc3c(c2)OC(F)(F)O3)CC1 (racemic) [Example 6, rac-1-(2,2-difluoro-1,3-benzodioxol-5-yl)-N-{(2R,4R)-2-[3-(hydroxymethyl)phenyl]tetrahydro-2H-pyran-4-yl}cyclopropanecarboxamide] | 5.15 µM | 32% | –
4 | C[C@@H]1C[C@H](NC(=O)C2(c3ccc4c(c3)OC(F)(F)O4)CC2)C[C@H](c2ccc(C(=O)O)cc2)O1 (racemic) [Example 45, rac-4-[(2R,4S,6R)-4-({[1-(2,2-difluoro-1,3-benzodioxol-5-yl)cyclopropyl]carbonyl}amino)-6-methyltetrahydro-2H-pyran-2-yl]benzoic acid] | 2 µM | 101% | –
5 | COC(=O)c1ccc([C@H]2C[C@H](NC(=O)C3(c4ccc5c(c4)OC(F)(F)O5)CC3)C[C@@H](C)O2)cc1 (racemic) [Example 46, methyl rac-4-[(2R,4R,6R)-4-({[1-(2,2-difluoro-1,3-benzodioxol-5-yl)cyclopropyl]carbonyl}amino)-6-methyltetrahydro-2H-pyran-2-yl]benzoate] | 4.56 µM | 67% | –
6 | COC(=O)c1ccc([C@H]2C[C@@H](NC(=O)C3(c4ccc5c(c4)OC(F)(F)O5)CC3)CCO2)c(C)c1 (single isomer, unassigned) [Example 41] | 0.41 µM | 104% | –
7 | O=C(O)c1cccc([C@@H]2C[C@H](NC(=O)C3(c4ccc5c(c4)OC(F)(F)O5)CC3)CCO2)c1 [Example 18, 3-[(2S,4R)-4-({[1-(2,2-difluoro-1,3-benzodioxol-5-yl)cyclopropyl]carbonyl}amino)tetrahydro-2H-pyran-2-yl]benzoic acid] | ≥ 20 µM | 3% | –
8 | Cc1cc(C(=O)O)ccc1[C@H]1C[C@H](NC(=O)C2(c3ccc4c(c3)OC(F)(F)O4)CC2)C[C@@H](c2ccccc2)O1 (racemic) [Example 64, rac-4-[(2R,4R,6S)-4-({[1-(2,2-difluoro-1,3-benzodioxol-5-yl)cyclopropyl]carbonyl}amino)-6-phenyltetrahydro-2H-pyran-2-yl]-3-methylbenzoic acid] | 2.4 µM | – | 53%
9 | Cc1cc(C(=O)O)cc([C@H]2C[C@@H](NC(=O)C3(c4ccc5c(c4)OC(F)(F)O5)CC3)C[C@@H](c3ccccc3)O2)c1 (single isomer, unassigned) [Example 75] | 0.22 µM | 105% | –
10 | COC(=O)c1ccc([C@H]2C[C@@H](NC(=O)C3(c4ccc5c(c4)OC(F)(F)O5)CC3)CCO2)c(C)c1 (racemic) [Example 36, methyl rac-4-[(2R,4S)-4-({[1-(2,2-difluoro-1,3-benzodioxol-5-yl)cyclopropyl]carbonyl}amino)tetrahydro-2H-pyran-2-yl]-3-methylbenzoate] | 0.57 µM | 100% | –
11 | O=C(O)c1ccccc1[C@H]1C[C@@H](NC(=O)C2(c3ccc4c(c3)OC(F)(F)O4)CC2)CCO1 (racemic) [Example 12, rac-2-[(2R,4S)-4-({[1-(2,2-difluoro-1,3-benzodioxol-5-yl)cyclopropyl]carbonyl}amino)tetrahydro-2H-pyran-2-yl]benzoic acid] | 7.63 µM | 108% | –
12 | O=C(N[C@H]1CCO[C@@H](c2cccc(CO)c2)C1)C1(c2ccc3c(c2)OC(F)(F)O3)CC1 (racemic) [Example 9, rac-1-(2,2-difluoro-1,3-benzodioxol-5-yl)-N-{(2R,4S)-2-[3-(hydroxymethyl)phenyl]tetrahydro-2H-pyran-4-yl}cyclopropanecarboxamide] | 2.26 µM | 61% | –
13 | CC1(C)C[C@@H](NC(=O)C2(c3ccc4c(c3)OC(F)(F)O4)CC2)C[C@H](c2ccc(C(=O)O)cc2)O1 (racemic) [Example 33, rac-4-[(2R,4S)-4-({[1-(2,2-difluoro-1,3-benzodioxol-5-yl)cyclopropyl]carbonyl}amino)-6,6-dimethyltetrahydro-2H-pyran-2-yl]benzoic acid] | 3.89 µM | 102% | –
14 | COC(=O)c1ccc([C@H]2C[C@@H](NC(=O)C3(c4ccc5c(c4)OC(F)(F)O5)CC3)C[C@@H](c3ccc(OC)cc3)O2)cc1 (racemic) [Example 55, methyl rac-4-[(2R,4R,6S)-4-({[1-(2,2-difluoro-1,3-benzodioxol-5-yl)cyclopropyl]carbonyl}amino)-6-(4-methoxyphenyl)tetrahydro-2H-pyran-2-yl]benzoate] | 0.86 µM | 104% | –
15 | COc1ccc([C@@H]2C[C@H](NC(=O)C3(c4ccc5c(c4)OC(F)(F)O5)CC3)C[C@H](c3ccc(C(=O)O)cc3)O2)cc1 (racemic) [Example 57, rac-4-[(2R,4R,6S)-4-({[1-(2,2-difluoro-1,3-benzodioxol-5-yl)cyclopropyl]carbonyl}amino)-6-(4-methoxyphenyl)tetrahydro-2H-pyran-2-yl]benzoic acid] | 0.58 µM | 90% | –
16 | COC(=O)c1ccc([C@H]2C[C@H](NC(=O)C3(c4ccc5c(c4)OC(F)(F)O5)CC3)CC(C)(C)O2)cc1 (racemic) [Example 32, methyl rac-4-[(2R,4S)-4-({[1-(2,2-difluoro-1,3-benzodioxol-5-yl)cyclopropyl]carbonyl}amino)-6,6-dimethyltetrahydro-2H-pyran-2-yl]benzoate] | 4.12 µM | 69% | –
17 | COC(=O)c1ccc([C@H]2C[C@@H](NC(=O)C3(c4ccc5c(c4)OC(F)(F)O5)CC3)C[C@@H](c3ccccc3)O2)cc1 (racemic) [Example 48, methyl rac-4-[(2R,4S,6S)-4-({[1-(2,2-difluoro-1,3-benzodioxol-5-yl)cyclopropyl]carbonyl}amino)-6-phenyltetrahydro-2H-pyran-2-yl]benzoate] | 0.83 µM | 100% | –
18 | Cc1cc(C(=O)O)ccc1[C@@H]1C[C@H](NC(=O)C2(c3ccc4c(c3)OC(F)(F)O4)CC2)CCO1 (stereo in doubt) [Example 42, rel-4-[(2S,4R)-4-({[1-(2,2-difluoro-1,3-benzodioxol-5-yl)cyclopropyl]carbonyl}amino)tetrahydro-2H-pyran-2-yl]-3-methylbenzoic acid] | 6.87 µM | 36% | –
19 | COC(=O)c1ccc([C@H]2C[C@H](NC(=O)C3(c4ccc5c(c4)OC(F)(F)O5)CC3)C[C@@H](c3ccccc3)O2)cc1 (racemic) [Example 47, methyl rac-4-[(2R,4R,6S)-4-({[1-(2,2-difluoro-1,3-benzodioxol-5-yl)cyclopropyl]carbonyl}amino)-6-phenyltetrahydro-2H-pyran-2-yl]benzoate] | 6.47 µM | 73% | –
20 | COc1cccc([C@@H]2C[C@H](NC(=O)C3(c4ccc5c(c4)OC(F)(F)O5)CC3)C[C@H](c3cccc(C(=O)O)c3)O2)c1 (single isomer, unassigned) [Example 74] | 0.24 µM | 89% | –
